For two compounds, Ki results are on record in US6376551B1, “Treatment of chronic fatigue syndrome” (Knoll Pharmaceutical Company, priority 1999, dated 2002).

In assay [1] the target is [3H]Noradenaline reuptake in rat brain tissue. Briefly: in vitro [3H]noradrenaline reuptake inhibition in rat brain tissue. Format: biochemical. Particulars: means of >3 separate determinations.
Assay [2] deals with [3H]Dopamine reuptake in rat brain tissue. Briefly: in vitro [3H]dopamine reuptake inhibition in rat brain tissue. The class given is biochemical. The following applies: means of >3 separate determinations.

Each structure is given as a SMILES string.

On to `CC(NC(C)(C)C)C(=O)c1cccc(Cl)c1` (stereo not shown) [Bupropion], for which the inhibition constant (Ki) – broadly, the dissociation constant of the complex between target and ligand, obtained from inhibition or displacement – stood at 2590 nM in assay [1] and 409 nM in assay [2].

Take `COc1ccc(C(CN(C)C)C2(O)CCCCC2)cc1` (stereo not shown) [Venlafaxine]: the Ki in assay [1] turned out to be 196 nM; in assay [2], 2590 nM.
